Source: US20090233999A1, “COMPOSITIONS AND THERAPEUTIC METHODS INVOLVING ISOFLAVONES AND ANALOGUES THEREOF” (NOVOGEN RESEARCH PTY LTD, priority 1999, published 2009)

Experiments:
[1] = test system: BALB/c mice (AA-induced ear swelling); settings: regardless of route of administration; cited from earlier work
[2] = DPPH free radical scavenging
Protocol: The antioxidant (free radical trapping) activity of test compounds was assessed using the stable free radical compound 2,2-diphenyl-1-picrylhydrazyl (DPPH). A stock solution of DPPH was prepared at a concentration of 0.1 mM in ethanol and mixed for 10 minutes prior to use. Test compounds at a concentration of 100 μM were reacted with DPPH for 20 minutes, after which time the absorbance at 517 nm was determined and the change in absorbance compared to a reagent blank (DPPH with ethanol alone). A dose response curve was produced for those compounds with free radical scavenging activity (ΔAbs>0.3) at 100 μM. The IC50 value was estimated as the concentration of test compound that caused a 0.6 change in absorbance (with 1.2 absorbance units representing total scavenging of the DPPH radical).

rat aortic ring = assay: Rat aortic ring assay, contractile response to noradrenaline; settings: 1 μg/ml
Protocol: The vasodilatory capacity was examined ex vivo using the rat aortic ring assay.
Male Sprague-Dawley rats (250±50 g) were euthanased with 80% CO2 and 20% O2. The thoracic aorta was excised and quickly mounted in organ-baths as described. Full concentration-contractile curves were obtained to noradrenaline (0.1 nM-[…]) with and without test compounds delivered at a concentration of 1 μg/ml. Experiments were repeated in n=5 different rings from 5 different animals. Only one compound at any one concentration was tested on any one ring from any one animal. Sigmoidal dose response curves were fitted for the data and the logEC50 and the Ema, calculated (Prism 4, GraphPad Software). The difference in these values between the presence and absence of test compound was calculated using a two-tailed paired t test. The effects of β-oestrodiol and vehicle alone were examined as a positive and negative control respectively.

[3] = test system: COX (PGE2 and TXB2 synthesis); assay: LPS-induced prostanoid (PGE2, TXB2) synthesis in human monocytes; type: cell-based; settings: LPS 200 ng/mL, 18 hrs, data at 10 μM
Protocol: Human peripheral blood monocytes were isolated from buffy coats by lymphoprep gradient separation followed by counter-current centrifugal elutriation. Test compounds were dissolved in DMSO and added to fresh monocytes to achieve concentrations of 0, 10 and 100 μM. After 30 min, lipopolysaccharide (LPS) was added to achieve a final concentration of 200 ng/mL. After incubation for 18 hrs at 37° C. in 5% CO2, supernatants were removed and PGE2 and TXB2 (the stable hydrolysis product of TXA2) production were measured by radioimmunoassay (RIA). ANOVA followed by Newman-Keuls multiple comparisons test was used to examine differences between doses and the control values.

ER beta receptor = target: T1, ER beta receptor (Homo sapiens, UniProt Q92731); assay: Estrogen Receptor Beta Competitor Assay Core HTS Kit (Panvera); settings: competitive binding; kind of quantity not given; read-out: binding affinity, ER beta receptor
T1 construct: purchased Panvera Corporation P2614/2615
T1 sequence (Q92731 whole entry): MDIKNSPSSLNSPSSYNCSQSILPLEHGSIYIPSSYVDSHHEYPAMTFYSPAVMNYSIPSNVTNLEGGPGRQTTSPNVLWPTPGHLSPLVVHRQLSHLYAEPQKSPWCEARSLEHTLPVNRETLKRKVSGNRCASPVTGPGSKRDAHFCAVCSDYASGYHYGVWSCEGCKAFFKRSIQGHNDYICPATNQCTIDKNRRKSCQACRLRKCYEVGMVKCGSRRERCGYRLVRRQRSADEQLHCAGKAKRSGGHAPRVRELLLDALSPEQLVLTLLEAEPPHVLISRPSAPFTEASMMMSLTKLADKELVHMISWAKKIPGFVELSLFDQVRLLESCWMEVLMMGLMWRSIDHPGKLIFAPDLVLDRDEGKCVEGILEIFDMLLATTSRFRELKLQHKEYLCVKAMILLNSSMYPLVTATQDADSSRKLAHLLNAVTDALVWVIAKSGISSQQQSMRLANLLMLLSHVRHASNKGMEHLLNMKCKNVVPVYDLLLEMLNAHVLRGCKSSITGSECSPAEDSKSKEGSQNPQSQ
Protocol: The binding affinity of various compounds of the invention for both subtypes of the estrogen receptor was determined with the “Estrogen Receptor Alpha or Beta Competitor Assay Core HTS Kit” supplied by Panvera Corporation (Product No. P2614/2615).

Row | SMILES | AA-induced oedema [1] | melting point | also measured
1 | CC(=O)Oc1ccccc1C(=O)O [aspirin] | did not influence | – | –
2 | CC(=O)Oc1ccc(C2COc3cc(OC(C)=O)cc(C)c3C2=O)cc1 (stereo not shown) [Example 6, 4′,7-Diacetoxy-5-methylisoflavan-4-one] | – | 143 to 145 °C | –
3 | Cc1c(O)ccc2c1OCC(c1ccc(O)cc1)=C2 [Cpd. 13, 4′,7-Dihydroxy-8-methylisoflav-3-ene] | – | 190 to 193 °C | ability to scavenge free radicals ([2]; DPPH): limited activity; EC50 ([2]; DPPH 0.1 mM, 20 minutes, read-out: Free radical scavenging ability EC50): 94 µM; contractile response (logEC50) of the aortic ring to noradrenaline (rat aortic ring): significantly inhibited; strength of the contractile response (Emax) (rat aortic ring): reduced
4 | Cc1c(O)ccc2c1OCC(c1ccccc1)=C2 [Cpd. 17, 7-Hydroxy-8-methylisoflav-3-ene] | – | – | COX inhibitory activity (inhibition of PGE2 and TXA2 production) [3]: significant COX inhibitory activity
5 | CN1C(C(=O)Nc2ccccn2)=C(O)c2ccccc2S1(=O)=O [piroxicam] | did not influence | – | –
6 | O=C1c2cc(Cl)c(O)cc2OCC1c1ccc(O)cc1 (stereo not shown) [6-Chloro-4′,7-dihydroxyisoflavan-4-one] | – | – | IC50 (ER beta receptor): 32.1 µM
7 | COc1ccc2c(c1)c(CC(=O)O)c(C)n2C(=O)c1ccc(Cl)cc1 [indomethacin] | does inhibit | – | –
8 | CC(=O)Oc1ccc(-c2coc3cc(OC(C)=O)cc(C)c3c2=O)cc1 [Example 5, 4′,7-Diacetoxy-5-methylisoflavone] | – | 195 to 197 °C | –
9 | CC(C)Cc1ccc(C(C)C(=O)O)cc1 (stereo not shown) [ibuprofen] | did not influence | – | –
